Biological target: Methionine--tRNA ligase (Staphylococcus aureus)
Assay: Compound tested for inhibition of Staphylococcus aureus MRS(methionyl tRNA synthetase) in aminoacylation assay

| SMILES | IC50 [nM] |
| --- | --- |
| Oc1cc(NCCCNCc2ccccc2)nc2ccccc12 [2-(3-Benzylamino-propylamino)-1H-quinolin-4-one] | 300 |
| Oc1cc(NCCCNCc2cccc(Cl)c2Cl)nc2ccccc12 [2-[3-(2,3-Dichloro-benzylamino)-propylamino]-1H-quinolin-4-one] | 15 |
| Oc1cc(NCCCNCc2cc(Cl)ccc2Cl)nc2ccccc12 [2-[3-(2,5-Dichloro-benzylamino)-propylamino]-1H-quinolin-4-one] | 9 |
| C=CCOc1c(Cl)cc(Cl)cc1CNCCCNc1cc(O)c2ccccc2n1 [2-[3-(2-Allyloxy-3,5-dichloro-benzylamino)-propylamino]-1H-quinolin-4-one] | 7.2 |
| Nc1c(Br)cc(Br)cc1CNCCCNc1cc(O)c2ccccc2n1 [2-[3-(2-Amino-3,5-dibromo-benzylamino)-propylamino]-1H-quinolin-4-one] | 9.1 |
| Oc1cc(NCCCOCc2ccc(Cl)c(Cl)c2)nc2ccccc12 [2-[3-(3,4-Dichloro-benzyloxy)-propylamino]-1H-quinolin-4-one] | 50 |
| Oc1cc(NCCCSCc2ccc(Cl)c(Cl)c2)nc2ccccc12 [2-[3-(3,4-Dichloro-benzylsulfanyl)-propylamino]-1H-quinolin-4-one] | 170 |
| CCOc1c(Br)cc(Br)cc1CNCCCNc1cc(O)c2ccccc2n1 [2-[3-(3,5-Dibromo-2-ethoxy-benzylamino)-propylamino]-1H-quinolin-4-one] | 4.4 |
| CCNc1c(Br)cc(Br)cc1CNCCCNc1cc(O)c2ccccc2n1 [2-[3-(3,5-Dibromo-2-ethylamino-benzylamino)-propylamino]-1H-quinolin-4-one] | 18 |

Now from value to molecule:

| IC50 [nM] | SMILES |
| --- | --- |
| 11 | CNc1c(Br)cc(Br)cc1CNCCCNc1cc(O)c2ccccc2n1 [2-[3-(3,5-Dibromo-2-methylamino-benzylamino)-propylamino]-1H-quinolin-4-one] |
| 14 | CCOc1c(Cl)cc(Cl)cc1CNCCCNc1cc(O)c2ccccc2n1 [2-[3-(3,5-Dichloro-2-ethoxy-benzylamino)-propylamino]-1H-quinolin-4-one] |
| 29 | CC(C)Oc1c(Cl)cc(Cl)cc1CNCCCNc1cc(O)c2ccccc2n1 [2-[3-(3,5-Dichloro-2-isopropoxy-benzylamino)-propylamino]-1H-quinolin-4-one] |
| 3 | Oc1cc(NCCCNCc2cc(Cl)cc(Cl)c2)nc2ccccc12 [2-[3-(3,5-Dichloro-benzylamino)-propylamino]-1H-quinolin-4-one] |
| 61 | CCOc1cc(Br)c(OCC)c(CNCCCNc2cc(O)c3ccccc3n2)c1 [2-[3-(3-Bromo-2,5-diethoxy-benzylamino)-propylamino]-1H-quinolin-4-one] |
| 8.8 | CCOc1c(Br)cc(I)cc1CNCCCNc1cc(O)c2ccccc2n1 [2-[3-(3-Bromo-2-ethoxy-5-iodo-benzylamino)-propylamino]-1H-quinolin-4-one] |
| 3.1 | CCOc1c(Br)cc(OC)cc1CNCCCNc1cc(O)c2ccccc2n1 [2-[3-(3-Bromo-2-ethoxy-5-methoxy-benzylamino)-propylamino]-1H-quinolin-4-one] |
| 4.9 | CCOc1c(Br)cc(C)cc1CNCCCNc1cc(O)c2ccccc2n1 [2-[3-(3-Bromo-2-ethoxy-5-methyl-benzylamino)-propylamino]-1H-quinolin-4-one] |
| 4.7 | CCOc1c(Br)cc(SC)cc1CNCCCNc1cc(O)c2ccccc2n1 [2-[3-(3-Bromo-2-ethoxy-5-methylsulfanyl-benzylamino)-propylamino]-1H-quinolin-4-one] |

Biological target: Methionine--tRNA ligase (Staphylococcus aureus)
Assay: Compound tested for inhibition of Staphylococcus aureus MRS (methionyl tRNA synthetase) in aminoacylation assay

| SMILES | IC50 [nM] |
| --- | --- |
| Oc1cc(NCCCNC2CCNc3c(Br)cc(Cl)cc32)nc2ccccc12 (stereo unspecified) | < 3 |
| O=c1cc(NCCCNC2CCOc3c(Cl)cc(Cl)cc32)[nH]c2ccccc12 (stereo unspecified) | < 3 |
| Oc1cc(NCCCNC2CCNc3c(Cl)cc(Br)cc32)nc2ccccc12 (stereo unspecified) | < 3 |
| C=CCc1cc(I)cc(CNCCCNc2cc(O)c3ccccc3n2)c1OCC | < 3 |
| Oc1cc(NCCCNC2CCOc3c(Br)cc(Br)cc32)nc2ccccc12 (stereo unspecified) [2-(3-(6,8-dibromo-3,4-dihydro-2H-chromen-4-ylamino)propylamino)quinolin-4(1H)-one] | 7.8 |
| CCOC(=O)c1cc(I)cc(CNCCCNc2cc(O)c3ccccc3n2)c1OCC [2-Ethoxy-5-iodo-3-{[3-(4-oxo-1,4-dihydro-quinolin-2-ylamino)-propylamino]-methyl}-benzoic acid ethyl ester] | 21 |
| CCOc1c(CO)cc(I)cc1CNCCCNc1cc(O)c2ccccc2n1 [2-[3-(2-Ethoxy-3-hydroxymethyl-5-iodo-benzylamino)-propylamino]-1H-quinolin-4-one] | 4.1 |
| CCOc1c(I)cc(OC)cc1CNCCCNc1cc(O)c2ccccc2n1 [2-[3-(2-Ethoxy-3-iodo-5-methoxy-benzylamino)-propylamino]-1H-quinolin-4-one] | 3.3 |
| CCOc1c(I)cc(COC)cc1CNCCCNc1cc(O)c2ccccc2n1 [2-[3-(2-Ethoxy-3-iodo-5-methoxymethyl-benzylamino)-propylamino]-1H-quinolin-4-one] | 17 |
| CCOc1c(I)cc(C)cc1CNCCCNc1cc(O)c2ccccc2n1 [2-[3-(2-Ethoxy-3-iodo-5-methyl-benzylamino)-propylamino]-1H-quinolin-4-one] | 7.2 |
| CCOc1c(C)cc(SC)cc1CNCCCNc1cc(O)c2ccccc2n1 [2-[3-(2-Ethoxy-3-methyl-5-methylsulfanyl-benzylamino)-propylamino]-1H-quinolin-4-one] | 5.1 |
| CCOc1c(C)cc(C(F)(F)F)cc1CNCCCNc1cc(O)c2ccccc2n1 [2-[3-(2-Ethoxy-3-methyl-5-trifluoromethyl-benzylamino)-propylamino]-1H-quinolin-4-one] | 6.8 |
| CCOc1c(I)cc(CO)cc1CNCCCNc1cc(O)c2ccccc2n1 [2-[3-(2-Ethoxy-5-hydroxymethyl-3-iodo-benzylamino)-propylamino]-1H-quinolin-4-one] | 14 |
| CCOc1c(CNCCCNc2cc(O)c3ccccc3n2)cc(I)cc1COC [2-[3-(2-Ethoxy-5-iodo-3-methoxymethyl-benzylamino)-propylamino]-1H-quinolin-4-one] | 9.4 |
| CCOc1c(C)cc(I)cc1CNCCCNc1cc(O)c2ccccc2n1 [2-[3-(2-Ethoxy-5-iodo-3-methyl-benzylamino)-propylamino]-1H-quinolin-4-one] | 3.2 |
| Oc1cc(NCCCNCc2ccc(Cl)c(Cl)c2)nc2ccccc12 [2-[3-(3,4-Dichloro-benzylamino)-propylamino]-1H-quinolin-4-one] | 16 |

More lines, now with the values ahead:

| IC50 [nM] | SMILES |
| --- | --- |
| 23 | CCOc1c(Br)cc([S+](C)[O-])cc1CNCCCNc1cc(O)c2ccccc2n1 (stereo unspecified) [2-[3-(3-Bromo-2-ethoxy-5-methanesulfinyl-benzylamino)-propylamino]-1H-quinolin-4-one] |
| 120 | CCOc1c(CNCCCNc2cc(O)c3ccccc3n2)cc(I)cc1C(C)(C)C [2-[3-(3-tert-Butyl-2-ethoxy-5-iodo-benzylamino)-propylamino]-1H-quinolin-4-one] |
| 5.1 | Oc1cc(NCCCNC2CCc3c(Cl)cc(Cl)cc32)nc2ccccc12 (stereo unspecified) [2-[3-(4,6-Dichloro-indan-1-ylamino)-propylamino]-1H-quinolin-4-one] |
| 3.8 | Oc1cc(NCCCNC2CCCc3c(Cl)cc(Cl)cc32)nc2ccccc12 (stereo unspecified) [2-[3-(5,7-Dichloro-1,2,3,4-tetrahydro-naphthalen-1-ylamino)-propylamino]-1H-quinolin-4-one] |
| 6 | Oc1cc(NCCCNC2COc3c(Cl)cc(Cl)cc32)nc2ccccc12 (stereo unspecified) [2-[3-(5,7-Dichloro-2,3-dihydro-benzofuran-3-ylamino)-propylamino]-1H-quinolin-4-one] |
| 8 | Oc1cc(NCCCNC2CCNc3c(Br)cc(Br)cc32)nc2ccccc12 (stereo unspecified) [2-[3-(6,8-Dibromo-1,2,3,4-tetrahydro-quinolin-4-ylamino)-propylamino]-1H-quinolin-4-one] |
| 23 | Oc1cc(NCCCNC2CCNc3c(Cl)cc(Cl)cc32)nc2ccccc12 (stereo unspecified) [2-[3-(6,8-Dichloro-1,2,3,4-tetrahydro-quinolin-4-ylamino)-propylamino]-1H-quinolin-4-one] |
| 4.3 | CCc1cc(Br)cc2c1NCCC2NCCCNc1cc(O)c2ccccc2n1 (stereo unspecified) [2-[3-(6-Bromo-8-ethyl-1,2,3,4-tetrahydro-quinolin-4-ylamino)-propylamino]-1H-quinolin-4-one] |
| 9.4 | Cc1cc(Br)cc2c1NCCC2NCCCNc1cc(O)c2ccccc2n1 (stereo unspecified) [2-[3-(6-Bromo-8-methyl-1,2,3,4-tetrahydro-quinolin-4-ylamino)-propylamino]-1H-quinolin-4-one] |
| 9.4 | Oc1cc(NCCCNC2CCOc3c(I)cc(Cl)cc32)nc2ccccc12 (stereo unspecified) [2-[3-(6-Chloro-8-iodo-chroman-4-ylamino)-propylamino]-1H-quinolin-4-one] |
| 12 | CCc1cc(I)c2c(c1)C(NCCCNc1cc(O)c3ccccc3n1)CCN2 (stereo unspecified) [2-[3-(6-Ethyl-8-iodo-1,2,3,4-tetrahydro-quinolin-4-ylamino)-propylamino]-1H-quinolin-4-one] |
| 12 | Oc1cc(NCCCNC2CCOc3c(Cl)cc(I)cc32)nc2ccccc12 (stereo unspecified) [2-[3-(8-Chloro-6-iodo-chroman-4-ylamino)-propylamino]-1H-quinolin-4-one] |
| 170 | CCOC(=O)c1cc(I)c(OCC)c(CNCCCNc2cc(O)c3ccccc3n2)c1 [4-Ethoxy-3-iodo-5-{[3-(4-oxo-1,4-dihydro-quinolin-2-ylamino)-propylamino]-methyl}-benzoic acid ethyl ester] |
| 3.9 | CCOc1c(C)cc(C#N)cc1CNCCCNc1cc(O)c2ccccc2n1 [4-Ethoxy-3-methyl-5-{[3-(4-oxo-1,4-dihydro-quinolin-2-ylamino)-propylamino]-methyl}-benzonitrile] |
| 4 | CCOc1c(C#N)cc(Br)cc1CNCCCNc1cc(O)c2ccccc2n1 [5-Bromo-2-ethoxy-3-{[3-(4-oxo-1,4-dihydro-quinolin-2-ylamino)-propylamino]-methyl}-benzonitrile] |
| 13 | CCOc1c(CNCCCNc2cc(O)c3ccccc3n2)cc(Br)cc1OC [TCMDC-139833] |
| 12 | CCOc1c(CNCCCNc2cc(O)c3ccccc3n2)cc(I)cc1OC [TCMDC-139847] |

Reference: BindingDB's records for doi:10.1016/s0960-894x(02)01027-2 (Glaxosmithkline, 2003)
